# Measured values from patent US8263624B2, “Aryl-substituted heterocycles, and use thereof” (Bayer Intellectual Property GmbH, priority 2006, dated 2012).
# Structures can show the parent of a compound that is named as a salt.
# Molecular target: T1, human factor Xa (Homo sapiens, UniProt P00742)
# T1 construct: factor Xa, which is formed from the proenzyme factor X
# Assay: Determination of the factor Xa inhibition (fluorogenic substrate Boc-Ile-Glu-Gly-Arg-AMC)
# Format: biochemical
# Conditions: human factor Xa 1.3 nmol/l, 15 min preincubation at 22° C., substrate 5 μmol/l, pH 7.4
# Protocol: • a.1) Determination of the Factor Xa Inhibition
# In order to determine the factor Xa inhibition of the substances listed above, a biochemical test system is set up, in which the conversion of a factor Xa substrate is used to determine the enzymatic activity of human factor Xa. Here Factor Xa cleaves aminomethylcoumarin, whose fluorescence is measured, from the peptidic substrate. The determinations are carried out in microtitre plates.
# Substances to be tested, in various concentrations, are dissolved in dimethyl sulphoxide and incubated for 15 min at 22° C. with human factor Xa (1.3 nmol/l dissolved in 50 mmol/l of Tris buffer [C,C,C-tris(hydroxymethyl)aminomethane], 100 mmol/l NaCl, 0.1% BSA [bovine serum albumin], pH 7.4). The substrate (5 μmol/l of Boc-Ile-Glu-Gly-Arg-AMC from Bachem) is then added. After an incubation time of 30 min, the sample is excited at a wavelength of 360 nm, and the emission at 460 nm is measured. The measured emissions of the test batches with test substance are compared to the control batches without test substance (only dimethyl sulphoxide instead of test substance in dimethyl sulphoxide), and IC50 values are calculated from the concentration/activity relationships.
# T1 sequence (P00742 235-488 limits assumed): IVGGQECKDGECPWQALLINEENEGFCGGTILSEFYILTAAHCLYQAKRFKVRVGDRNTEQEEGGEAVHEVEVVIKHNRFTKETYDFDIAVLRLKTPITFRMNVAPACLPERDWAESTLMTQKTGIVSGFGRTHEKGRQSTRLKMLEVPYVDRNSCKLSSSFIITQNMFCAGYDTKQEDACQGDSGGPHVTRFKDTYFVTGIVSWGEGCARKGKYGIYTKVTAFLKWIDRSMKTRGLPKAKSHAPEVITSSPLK
# T1 sequence (P00742 41-179 partner limits assumed): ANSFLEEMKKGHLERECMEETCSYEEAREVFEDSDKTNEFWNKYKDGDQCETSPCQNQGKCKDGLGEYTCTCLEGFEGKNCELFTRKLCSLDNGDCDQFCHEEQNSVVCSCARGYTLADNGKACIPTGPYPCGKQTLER
row,IC50 [nM],Structure (SMILES)
1,0.7,"O=C(NCc1cn(-c2ccc(N3CCOCC3=O)cc2)nc1-c1ccccc1)c1ccc(Cl)s1 [Example 1, 5-Chloro-N-({1-[4-(3-oxomorpholin-4-yl)phenyl]-3-phenyl-1H-pyrazol-4-yl}methyl)thiophene-2-carboxamide]"
2,0.7,"Cc1cc(-n2cc(CNC(=O)c3ccc(Cl)s3)c(-c3ccccc3)n2)ccc1N1CCOCC1=O [Example 2, 5-Chloro-N-({1-[3-methyl-4-(3-oxomorpholin-4-yl)phenyl]-3-phenyl-1H-pyrazol-4-yl}methyl)-thiophene-2-carboxamide]"
3,0.8,"O=C(NCc1cn(-c2ccc(N3CCOCC3=O)cc2)nc1-c1cccnc1)c1ccc(Cl)s1 [Example 3, 5-Chloro-N-({1-[4-(3-oxomorpholin-4-yl)phenyl]-3-pyridin-3-yl-1H-pyrazol-4-yl}methyl)thiophene-2-carboxamide hydrochloride]"
